SMILES	melting point [°C]
C#Cc1cc(=O)n2nc(S(=O)(=O)Cc3ccccc3)sc2n1	101 to 106
Nc1ccc(O)c(-c2cccs2)c1	130 to 132
O[C@@H]1c2ccccc2C=C[C@H]1NCc1ccccc1 (relative stereo)	125 to 126
CCOC(=O)C1CCCn2c(cc3ccccc32)C1 (centres undefined)	69 to 70
CCc1cccc(CC)c1NCc1n[nH]c(=S)n1C	117 to 121
COC(=O)c1cncc(NC(=O)C(C)CSC(C)=O)c1 (centres undefined)	88 to 90
O=C(O)c1cc(C(=O)O)c2c(c1)C(C(=O)O)CC(c1ccccc1)N2 (centres undefined)	300
COC(=O)c1cc2c3cc(C)ccc3n(C)c2s1	152 to 155
CNC(=O)[C@@H](NC(=O)Nc1n[nH]c(=S)s1)C(C)OCc1ccccc1 (some centres undefined)	187 to 189
CCOC(=O)c1c(C(F)(F)F)nc(C(F)(F)Cl)c(C(=O)OC)c1Nc1ccccc1	91 to 92
OCc1ccc(Cn2c(NC3CCN(CC(O)COc4ccc(F)cc4)CC3)nc3ccccc32)o1 (centres undefined)	137
O=C(CCCCC(=O)Oc1cc(O)cc(O)c1)Oc1cc(O)cc(O)c1	251 to 255
CCOC(=O)c1cn(C2CC2)c2c(F)c(N3CCOC(CN(C)C)C3)c(F)cc2c1=O (centres undefined)	168 to 169
CCn1cc([N+](=O)[O-])cn1	54 to 55
Nc1nc(NC(CO)CO)c2ncn(C3C=CC(CO)C3)c2n1 (centres undefined)	160 to 162
CS(=O)(=O)Nc1cc(Cl)c(Cl)cc1Cl	144 to 145
CS(=O)(=O)OCc1cn(-c2ccc(N3CCOCC3)c(F)c2)nn1	158
Nc1ccc(Cc2ccccc2)cn1	79 to 80
Cc1c(C#N)oc2c(-c3ccc(F)cc3)c(-c3ccc(S(C)(=O)=O)cc3)nn12	236 to 238
CCN(CCc1ccc(NS(C)(=O)=O)cc1)CCc1ccc(NS(C)(=O)=O)cc1	< 60
Cc1ccccc1C(=O)CN1C(=O)C(NC(=O)Nc2cccc(CC(O)=S)c2)CN(C(=O)C(C)(C)C)c2ccccc21 (centres undefined)	127 to 130
O=C1SCCN1Cc1ccc([N+](=O)[O-])cc1	146 to 148
COc1cc(OC)cc(OC(=O)NC(=O)C(c2ccccc2)c2ccccc2)c1	150 to 152
Cc1cc(Cl)c(OCCO)cc1Nc1nnc2n1[C@H](c1ccc(F)cc1)COC2	161 to 162
COc1ccc(Oc2ccc3c(c2)C=C(C(=O)O)C(C(F)(F)F)O3)cc1 (centres undefined)	182 to 183

SMILES	melting point [°C]
O=C1NC(C(Cl)(Cl)Cl)Nc2ccccc21 (centres undefined)	201 to 202
NS(=O)(=O)c1ccc(-c2cc(-c3nc(-c4ccc(C(F)(F)F)nc4)cc(C(F)(F)F)n3)ccn2)s1	262
Nc1ncccc1OCC#CI	140
NC(=O)CC12CC3CC(CC(C3)C1)C2	174
O=c1[nH]nc(-c2cc(Cl)ccc2O)n1-c1ccc(C(F)(F)F)cc1	236 to 238
COCCc1nc2c(N)nc3ccccc3c2n1CCOCCN(C)S(C)(=O)=O	145 to 146
COC(=O)OCC(COC(=O)OC)OCn1cnc2c(=O)[nH]c(N)nc21	204 to 206
Cn1cnc2ccnc(Cl)c21	62 to 65
CS(=O)(=O)c1ccc(-c2cnn(-c3ccc(F)cc3)c(=O)c2Oc2ccc(F)cc2)cc1	83 to 85
COCC1OC(=Nc2nccs2)c2c1nc1cc(Cl)ccc1c2O (centres undefined)	> 270
Cc1cc(CC(=O)O)c(CC(C)N)cc1C (centres undefined)	222 to 223
CCCCCN1C(=O)C(CCC(=O)OC)(NC(=O)c2ccc(Cl)c(Cl)c2)c2ccccc21 (centres undefined)	84 to 114
CCCCNS(=O)(=O)c1ccc(N2CCC(=O)CC2)cc1	79 to 82
CCOC(=O)Cc1cn(Cc2ccccc2)nc1O	156 to 157
NC(=O)c1ccc(OCCNCC(O)COc2ccc(-c3csnn3)cc2)cc1 (centres undefined)	173 to 174
CCCCc1oc2ccccc2c1C(=O)NCc1ccc2cc(OCC#N)ccc2c1	142 to 143
Cc1noc(NS(=O)(=O)c2ccccc2-c2ccc(-c3ncco3)cc2CN(C)C(=O)c2ccc(F)cc2)c1C	125 to 135
CSc1nn2c(N)cc(N3CCN(C)CC3)nc2c1S(=O)(=O)c1ccccc1	> 230
CC(C)(C)c1cc(CCCO)cc(-n2nc3ccc(S(=O)(=O)c4ccccc4)cc3n2)c1O	159 to 161
O=C(CC1NC(=O)c2ccsc2-n2cccc21)c1ccccc1 (centres undefined)	205
O=S(=O)(Nc1cccc(Cl)c1Cl)c1cc(S(=O)(=O)Nc2cccc(Cl)c2Cl)c2cc(O)ccc2c1	117 to 119
Cc1cc(C(C)(C)CC(C)(C)C)c(O)c(C)c1CC(N)=O	179 to 181
COc1cccc(C2(c3cccc(OC)c3)CC2C=CC(=O)NC(C)CCCc2cccnc2)c1 (single isomer, unassigned)	104 to 106
O=c1[nH]c2ccc(Cn3ccnc3)cc2[nH]1	254

— a melting point compilation (Tetko et al.; mined from patent text by program, amines drawn as free bases though some values may be those of a salt)
